Measured values as given in US20240400564A1 (Syndax Pharmaceuticals, Inc, priority 2021, published 2024).

Target: T1, human Menin and N-terminal portion of human MLL (amino acids 4-43) (Homo sapiens, UniProt O00255)
T1 construct: H-FL-Menin diluted to 4 nM in assay buffer
T1 sequence (O00255 1-610): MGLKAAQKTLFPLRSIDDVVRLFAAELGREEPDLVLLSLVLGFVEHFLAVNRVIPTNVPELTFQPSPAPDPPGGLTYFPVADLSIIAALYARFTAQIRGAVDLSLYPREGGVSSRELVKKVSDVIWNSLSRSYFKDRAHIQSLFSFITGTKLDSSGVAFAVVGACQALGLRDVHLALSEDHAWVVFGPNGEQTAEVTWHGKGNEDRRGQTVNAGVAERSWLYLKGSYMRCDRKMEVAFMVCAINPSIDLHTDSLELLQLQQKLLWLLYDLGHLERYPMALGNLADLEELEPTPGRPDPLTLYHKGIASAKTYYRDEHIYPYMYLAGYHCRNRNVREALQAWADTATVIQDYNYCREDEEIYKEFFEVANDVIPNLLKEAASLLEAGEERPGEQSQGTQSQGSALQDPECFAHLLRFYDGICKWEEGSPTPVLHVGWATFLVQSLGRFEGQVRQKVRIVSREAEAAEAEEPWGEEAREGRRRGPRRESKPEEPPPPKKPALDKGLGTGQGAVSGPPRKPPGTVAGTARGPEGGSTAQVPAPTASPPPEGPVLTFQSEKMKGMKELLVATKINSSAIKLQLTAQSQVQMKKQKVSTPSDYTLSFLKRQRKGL
Assay: Menin-MLL competition assay (HTRF)
Assay type: binding
Details: 1 hr incubation
From the text: Menin-MLL is a competition assay between human Menin and N-terminal portion of human MLL representing amino acids 4-43 of the protein. The interaction between Menin and MLL peptide was monitored by HTRF employing Terbium labeled anti-His6 antibody directed to the N-terminal His6-tag on recombinant Menin and FITC group covalently attached to the MLL peptide. The N-terminal fragment of MLL, retained in all MLL fusion proteins, is involved in the interactions with Menin, and this protein-protein interaction is critical for the MLL fusion proteins mediated leukemogenic transformations.
For IC50 determination test compounds were prepared as 10 mM DMSO stock solutions. Considering DMSO as the vehicle in the assay system. Lower sub-stocks of 50 μM were prepared from the 10 mM stock solution. To test the compounds in assay, 3.16-fold serial dilutions are made in 100% DMSO. Mid-stock of 50×compounds (50 μM) were serially diluted (3.16 fold) in 100% DMSO in Polypropylene plate. In assay plate 1 micro-litre of the previously prepared compound dilution was stamped. H-FL-Menin diluted to 4 nM in assay buffer (50 mM Tris-HCl, pH 7.4, 50 mM NaCl, freshly prepared 1 mM DTT, 0.01% BSA, 0.005% Triton X-100) was pre-incubated with 8 nM anti-His6-Tb for 30 min at room temperature. FITC-MLL-4-43 was diluted to 2 nM in assay buffer and 25 μL was dispensed into each well of the assay plate followed by addition of 25 μl of pre-incubated H-FL-Menin and anti-His6-Tb mixture. Final concentration H-FL-Menin diluted to 1 nM in assay plate with 2 nM anti-His6-Tb and 1 nM FITC-MLL-4-43. After 1 hr incubation at room temperature, the HTRF signal was measured on the Spark multi-label plate reader. Resulting data were captured as a ratio of RFU520/RFU485×1000. The max values were obtained from 0% inhibition in presence of 2% DMSO and the min. values were 100% inhibition in presence of 1 μM reference compound.

Row | Compound | IC50 [nM]
1 | CCN(C(=O)c1cc(F)ccc1Oc1cncnc1N1CC2(CCN(C[C@@H]3CC[C@@H](NS(=O)(=O)C(C)C)CO3)CC2)C1)C(C)C [Example 3, N-Ethyl-5-fluoro-N-isopropyl-2-((4-(7-(((2S,5R)-5-((1-methylethyl)sulfonamido)tetrahydro-2H-pyran-2-yl)methyl)-2,7-diazaspiro[3.5]nonan-2-yl)pyrimidin-5-yl)oxy)benzamide] | < 100
2 | CCN(C(=O)c1cc(F)ccc1Oc1cncnc1N1CC2(CCN(C[C@@H]3CC[C@@H](NS(=O)(=O)C4COC4)CO3)CC2)C1)C(C)C [Example 5, N-Ethyl-5-fluoro-N-isopropyl-2-((4-(7-(((2S,5R)-5-(oxetane-3-sulfonamido)tetrahydro-2H-pyran-2-yl)methyl)-2,7-diazaspiro[3.5]nonan-2-yl)pyrimidin-5-yl)oxy)benzamide] | < 100
3 | CCN(C(=O)c1cc(F)ccc1Oc1cncnc1N1CC2(CCN(C[C@@H]3CC[C@@H](NS(=O)(=O)CC4CC4)CO3)CC2)C1)C(C)C [Example 7, 2-((4-(7-(((2S,5R)-5-((Cyclopropylmethyl)sulfonamido)tetrahydro-2H-pyran-2-yl)methyl)-2,7-diazaspiro[3.5]nonan-2-yl)pyrimidin-5-yl)oxy)-N-ethyl-5-fluoro-N-isopropylbenzamide] | < 100
4 | CCN(C(=O)c1cc(F)ccc1Oc1cncnc1N1CC2(CCN(C[C@@H]3CC[C@@H](NS(=O)(=O)CCOC)CO3)CC2)C1)C(C)C [Example 8, N-Ethyl-5-fluoro-N-isopropyl-2-((4-(7-(((2S,5R)-5-((2-methoxyethyl)sulfonamido)tetrahydro-2H-pyran-2-yl)methyl)-2,7-diazaspiro[3.5]nonan-2-yl)pyrimidin-5-yl)oxy)benzamide] | < 100
5 | CCCS(=O)(=O)N[C@@H]1CC[C@@H](CN2CCC3(CC2)CN(c2ncncc2Oc2ccc(F)cc2C(=O)N(CC)C(C)C)C3)OC1 [Example 9, N-Ethyl-5-fluoro-N-isopropyl-2-((4-(7-(((2S,5R)-5-(propylsulfonamido)tetrahydro-2H-pyran-2-yl)methyl)-2,7-diazaspiro[3.5]nonan-2-yl)pyrimidin-5-yl)oxy)benzamide] | < 100
6 | CC(C)N(C(=O)c1cc(F)ccc1Oc1cncnc1N1CC2(CCN(C[C@@H]3CC[C@@H](NC(=O)OC(C)(C)C)CO3)CC2)C1)C1CC1 [Example 17, tert-Butyl ((3R,6S)-6-((2-(5-(2-(cyclopropyl(isopropyl)carbamoyl)-4-fluorophenoxy)pyrimidin-4-yl)-2,7-diazaspiro[3.5]nonan-7-yl)methyl)tetrahydro-2H-pyran-3-yl)carbamate] | < 100
7 | CC(C)N(C(=O)c1cc(F)ccc1Oc1cncnc1N1CC2(CCN(C[C@@H]3CC[C@@H](NS(=O)(=O)C(C)C)CO3)CC2)C1)C1CC1 [Example 20, N-Cyclopropyl-5-fluoro-N-isopropyl-2-((4-(7-(((2S,5R)-5-((1-methylethyl)sulfonamido)tetrahydro-2H-pyran-2-yl)methyl)-2,7-diazaspiro[3.5]nonan-2-yl)pyrimidin-5-yl)oxy)benzamide] | < 100
8 | CC(C)N(C(=O)c1cc(F)ccc1Oc1cncnc1N1CC2(CCN(C[C@@H]3CC[C@@H](NS(=O)(=O)C4COC4)CO3)CC2)C1)C1CC1 [Example 22, N-Cyclopropyl-5-fluoro-N-isopropyl-2-((4-(7-(((2S,5R)-5-(oxetane-3-sulfonamido)tetrahydro-2H-pyran-2-yl)methyl)-2,7-diazaspiro[3.5]nonan-2-yl)pyrimidin-5-yl)oxy)benzamide] | < 100
9 | C[C@@H]1COC[C@H](C)N1C(=O)c1cc(F)ccc1Oc1cncnc1N1CC2(CCN(C[C@@H]3CC[C@@H](NS(C)(=O)=O)CO3)CC2)C1 [Example 23, N-((3R,6S)-6-((2-(5-(2-((3S,5R)-3,5-Dimethylmorpholine-4-carbonyl)-4-fluorophenoxy)pyrimidin-4-yl)-2,7-diazaspiro[3.5]nonan-7-yl)methyl)tetrahydro-2H-pyran-3-yl)methanesulfonamide] | < 100
10 | CCS(=O)(=O)N[C@@H]1CC[C@@H](CN2CCC3(CC2)CN(c2ncncc2Oc2ccc(F)cc2C(=O)N2[C@H](C)COC[C@@H]2C)C3)OC1 [Example 24, N-((3R,6S)-6-((2-(5-(2-((3S,5R)-3,5-dimethylmorpholine-4-carbonyl)-4-fluorophenoxy)pyrimidin-4-yl)-2,7-diazaspiro[3.5]nonan-7-yl)methyl)tetrahydro-2H-pyran-3-yl)ethanesulfonamide] | < 100
11 | CC(C)S(=O)(=O)N[C@@H]1CC[C@@H](CN2CCC3(CC2)CN(c2ncncc2Oc2ccc(F)cc2C(=O)N2[C@H](C)COC[C@@H]2C)C3)OC1 [Example 25, N-((3R,6S)-6-((2-(5-(2-((3S,5R)-3,5-Dimethylmorpholine-4-carbonyl)-4-fluorophenoxy)pyrimidin-4-yl)-2,7-diazaspiro[3.5]nonan-7-yl)methyl)tetrahydro-2H-pyran-3-yl)propane-2-sulfonamide] | < 100
12 | C[C@@H]1COC[C@H](C)N1C(=O)c1cc(F)ccc1Oc1cncnc1N1CC2(CCN(C[C@@H]3CC[C@@H](NS(=O)(=O)C4CC4)CO3)CC2)C1 [Example 26, N-((3R,6S)-6-((2-(5-(2-((3S,5R)-3,5-Dimethylmorpholine-4-carbonyl)-4-fluorophenoxy)pyrimidin-4-yl)-2,7-diazaspiro[3.5]nonan-7-yl)methyl)tetrahydro-2H-pyran-3-yl)cyclopropanesulfonamide] | < 100
13 | C[C@@H]1COC[C@H](C)N1C(=O)c1cc(F)ccc1Oc1cncnc1N1CC2(CCN(C[C@@H]3CC[C@@H](NS(=O)(=O)C4COC4)CO3)CC2)C1 [Example 27, N-((3R,6S)-6-((2-(5-(2-((3S,5R)-3,5-Dimethylmorpholine-4-carbonyl)-4-fluorophenoxy)pyrimidin-4-yl)-2,7-diazaspiro[3.5]nonan-7-yl)methyl)tetrahydro-2H-pyran-3-yl)oxetane-3-sulfonamide] | < 100
14 | C[C@@H]1COC[C@@H](C)N1C(=O)c1cc(F)ccc1Oc1cncnc1N1CC2(CCN(C[C@@H]3CC[C@@H](NS(C)(=O)=O)CO3)CC2)C1 [Example 28, N-((3R,6S)-6-((2-(5-(2-((3R,5R)-3,5-Dimethylmorpholine-4-carbonyl)-4-fluorophenoxy)pyrimidin-4-yl)-2,7-diazaspiro[3.5]nonan-7-yl)methyl)tetrahydro-2H-pyran-3-yl)methanesulfonamide] | < 100
15 | CCS(=O)(=O)N[C@@H]1CC[C@@H](CN2CCC3(CC2)CN(c2ncncc2Oc2ccc(F)cc2C(=O)N2[C@H](C)COC[C@H]2C)C3)OC1 [Example 29, N-((3R,6S)-6-((2-(5-(2-((3R,5R)-3,5-Dimethylmorpholine-4-carbonyl)-4-fluorophenoxy)pyrimidin-4-yl)-2,7-diazaspiro[3.5]nonan-7-yl)methyl)tetrahydro-2H-pyran-3-yl)ethanesulfonamide] | < 100
16 | CC(C)S(=O)(=O)N[C@@H]1CC[C@@H](CN2CCC3(CC2)CN(c2ncncc2Oc2ccc(F)cc2C(=O)N2[C@H](C)COC[C@H]2C)C3)OC1 [Example 30, N-((3R,6S)-6-((2-(5-(2-((3R,5R)-3,5-Dimethylmorpholine-4-carbonyl)-4-fluorophenoxy)pyrimidin-4-yl)-2,7-diazaspiro[3.5]nonan-7-yl)methyl)tetrahydro-2H-pyran-3-yl)propane-2-sulfonamide] | < 100
17 | C[C@@H]1COC[C@@H](C)N1C(=O)c1cc(F)ccc1Oc1cncnc1N1CC2(CCN(C[C@@H]3CC[C@@H](NS(=O)(=O)C4CC4)CO3)CC2)C1 [Example 31, N-((3R,6S)-6-((2-(5-(2-((3R,5R)-3,5-dimethylmorpholine-4-carbonyl)-4-fluorophenoxy)pyrimidin-4-yl)-2,7-diazaspiro[3.5]nonan-7-yl)methyl)tetrahydro-2H-pyran-3-yl)cyclopropanesulfonamide] | < 100
